Consider one compound from ChEMBL document CHEMBL5728572, “Thiadiazole IRAK4 compounds” (2021).

This assay addresses T1, Interleukin-1 receptor-associated kinase 4 (Homo sapiens, UniProt Q9NWZ3).
T1 sequence (Q9NWZ3 whole entry): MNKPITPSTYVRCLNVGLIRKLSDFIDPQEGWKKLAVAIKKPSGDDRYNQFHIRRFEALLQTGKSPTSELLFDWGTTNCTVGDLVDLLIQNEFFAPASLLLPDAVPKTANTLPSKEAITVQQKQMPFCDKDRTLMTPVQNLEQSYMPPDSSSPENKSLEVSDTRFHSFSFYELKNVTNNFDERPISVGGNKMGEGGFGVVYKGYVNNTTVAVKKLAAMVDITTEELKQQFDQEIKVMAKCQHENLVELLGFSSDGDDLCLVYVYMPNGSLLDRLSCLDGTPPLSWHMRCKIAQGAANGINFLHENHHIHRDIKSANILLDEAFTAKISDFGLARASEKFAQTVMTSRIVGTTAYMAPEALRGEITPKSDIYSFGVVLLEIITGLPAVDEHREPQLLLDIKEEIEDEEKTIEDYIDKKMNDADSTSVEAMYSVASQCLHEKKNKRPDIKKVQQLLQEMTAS
Nature of the assay: IRAK4 Biochemical Assay: IRAK4 enzyme (Carna Biosciences, Chuo-ku, Kobe, Japan) activity was measured by detecting phosphorylated peptide substrate formation using an antibody against the phosphorylated peptide substrate. This is a time-resolved fluorescence resonance energy transfer (TR-FRET) immunoassay, based on the STK1 KinEASE Assay (Cisbio, Bedford, Mass.). The assay was designed as a simple two-step, endpoint assay (a 5 μl enzyme reaction followed by 5 μl stop and detect Solution) performed in ProxiPlate-384 Plus plates (Perkin Elmer, Waltham, Mass.). Staurosporine, a non-selective kinase inhibitor was used as a positive control. Compounds diluted in DMSO were spotted into 384 well plates using a Labcyte® Echo 550 Liquid Handling System prior to addition of IRAK4 enzyme and peptide substrate. Reaction solutions were delivered using a Multi-Flo (Bio-Tek Instruments). The enzyme and peptide solution was incubated with compound for 15 minutes at room temp before the reaction was initiated by the addition of ATP. The standard 5 μl reaction mixture contained 500 μM ATP, […] (STK1 Peptide), 0.75 nM of IRAK4 in reaction buffer (50 mM HEPES, pH 7.0, 0.02% NaN3, 0.01% BSA, 0.1 mM Orthovanadate, 5 mM […], 0.025% NP-40, 1 mM DTT). […]. (In TR-FRET formats the signal depends on donor and acceptor labels being close together.)

pIC50: −log10 of the molar value.

What is called pIC50 is the negative decadic logarithm of the IC50, by convention in mol/L. Consider `CC(C)Nc1cc(-c2ccc3cc(C#N)cnn23)ncc1-c1nnc(N2CCCC2)s1`, for which the negative logarithm of the IC50 (pIC50) is 8.74.
